We go through one compound from patent EP1113726B1, “USE OF NEOHESPERIDIN DIHYDROCHALCONE FOR THE MANUFACTURE OF A MEDICAMENT FOR PREVENTING OR TREATING ELEVATED BLOOD LIPID LEVEL-RELATED DISEASES” (Korea Research Institute of Bioscience and Biotechnology, priority 1998, dated 2000).

The subject of one series is Sprague-Dawley rats. Kind of series: Plasma total cholesterol, HDL-cholesterol and neutral lipid levels in rats fed a high-cholesterol diet. The following applies: 1 % cholesterol diet plus 0.05 % neohesperidin dihydrochalcone, six weeks.
Series [1] relates to New Zealand White rabbits. Kind of series: Analysis for fatty streak in the main artery of cholesterol-fed rabbits (Oil Red O staining). Type of series: in vivo. The following applies: 1 % cholesterol diet for 6 weeks plus 1 mg/kg Lovastatin or 0.05 % neohesperidin dihydrochalcone. The protocol:
(§1) 30 three-month-old New Zealand White rabbits(Yeonam Horticulture and Animal Husbandry College, Korea), each weighing about 2.5 to 2.6 kg, were raised under a condition of temperature 20±2°C, relative humidity 55±5 %, and photoperiod 12L/12D. The rabbits were divided into 3 groups and 3 groups of rabbits were fed with 3 different diets, i.e., RC4 diet(Oriental Yeast Co., Japan) containing 1 % cholesterol(Control group); 1 % cholesterol plus 1 mg/kg Lovastatin®(Merck, U.S.A.)(Lovastatin group); and 1 % cholesterol plus 0.05 % neohesperidin dihydrochalcone(Neohesperidin dihydrochalcone group), respectively. RC4 diet comprises 7.6 % moisture, 22.8 % crude protein, 2.8 % crude fat, 8.8 % crude ash, 14.4 % crude cellulose and 43.6 % soluble nitrogen-free substances. Neohesperidin dihydrochalcone was purchased from Sigma Chemical Co.(St. Louis, MO).
(§2) The rabbits were fed for 6 weeks while being allowed free access to the diets and water.
The chest of each of the rabbits sacrificed in Step 2 was incised. The downward portion of the main artery from the site 1 cm above the aortic valve was cut out in a length of about 5 cm and the fat surrounding the main artery was removed. The main artery was incised in the middle along the longitudinal axis and pinned to a dish. The moist artery was photographed and, then, the staining of fatty streaks was carried out in accordance with the method of Esper, E., et al. (J. Lab. Clin. Med., 121, 103-110(1993)) as follows.
A part of the incised main artery was washed three times with anhydrous propylene glycol for 2 min and stained for 30 min. with a saturated solution of Oil Red O(ORO, Sigma Co.) dissolved in propylene glycol. Thereafter, the artery was washed twice with 85 % propylene glycol for 3 min. to remove remaining staining solution and, then washed with physiological saline. The artery was photographed and the photograph was traced. The area of stained region (fatty streak region) was determined with an image analyzer(LEICA, Q-600, Germany) and its proportion(%) to the total arterial area was calculated.

For the next series, the system named is ACAT. Nature of the series: ACAT assay on liver microsomes of the diet-fed rats. Type of series: biochemical. The following applies: ex vivo: liver microsomes of rats fed 1 % cholesterol plus 0.05 % neohesperidin dihydrochalcone for six weeks, versus Control group. The protocol:
To determine the effect of feeding neohesperidin dihydrochalcone to rats on the activity of ACAT, microsomes were separated from liver tissues to be used as an enzyme source.
1 g each of the livers taken from each group of rats of Example 2 was homogenized in 5 ml of homogenization medium(0.1 M KH2PO4, pH 7.4, 0.1 mM EDTA and 10 mM β-mercaptoethanol). The homogenate was centrifuged at 3,000xg for 15 min. at 4°C and the supernatant thus obtained was centrifuged at 15,000xg for 15 min. at 4°C to obtain a supernatant. The supernatant was put into an ultracentrifuge tube(Beckman) and centrifuged at 100,000xg for 1 hour at 4°C to obtain microsomal pellets, which were then suspended in 3 ml of the homogenization medium and centrifuged at 100,000xg for 1 hour at 4°C. The pellets thus obtained were suspended in 1 ml of the homogenization medium. The protein concentration of the resulting suspension was determined by Lowry's method and then adjusted to 4 to 8 mg/ml. […]
200 µl of the resulting supernatant was put in a scintillation bottle and 4 ml of scintillation fluid(Lumac) was added thereto. The mixture was assayed for radioactivity with 1450 Microbeta liquid scintillation counter(Wallacoy, Finland). ACAT activity was calculated as picomoles of cholesteryl oleate synthesized per min. per mg protein(pmoles/min/mg protein).

The test system of series [2] is New Zealand White rabbits. Nature of the series: Microscopic grading of abnormal fat-containing cells in the liver of cholesterol-fed rabbits (fatty liver). Type of series: in vivo. The conditions noted are these: 1 % cholesterol diet for 6 weeks plus 1 mg/kg Lovastatin or 0.05 % neohesperidin dihydrochalcone. The protocol:
as §1, §2
In order to evaluate the effects of feeding a high cholesterol diet with neohesperidin dihydrochalcone on liver tissues, the liver specimens taken from the sacrificed rabbit in Step 2 of Example 6 were treated in accordance with the procedure disclosed in Fogt F. and Nanji A., Toxicology and Applied Pharmacology, 136, 87-93, 1996; and Keegan A., et al., Journal of Hepatology 23: 591-600, 1995, and observed under a microscope to be classified into four grades, i.e., 1+(0-25%), 2+(26-50%), 3+(51-75), 4+(76-100%) based on the proportion of abnormal fat-containing cells around the central vein in the liver acinus.
Figs. 2A, 2B and 2C present the microscopic features of the livers of the rabbits administered with 1% cholesterol; 1% cholesterol plus 1 mg/kg Lovastatin®; 1% and cholesterol plus 0.05% neohesperidin dihydrochalcone, respectively.

Series [3] concerns New Zealand White rabbits. Nature of the series: Chemical analysis of blood of cholesterol-fed rabbits. Type of series: in vivo. The protocol: as §1, §2
After six weeks, the rabbits were anesthetized with an intramuscular injection of ketamine (50 mg/kg) in the femoral region and sacrificed.

The mark [4] stands for this setting: rabbit serum, 1 % cholesterol diet for 6 weeks plus 1 mg/kg Lovastatin or 0.05 % neohesperidin dihydrochalcone.
Setting [5] is: rabbits, 1 % cholesterol plus 0.05 % neohesperidin dihydrochalcone, 6 weeks.

The structures appear in SMILES notation.

For the compound `COc1ccc(CCC(=O)c2c(O)cc(O[C@@H]3O[C@H](CO)[C@@H](O)[C@H](O)[C@H]3O[C@@H]3O[C@@H](C)[C@H](O)[C@@H](O)[C@H]3O)cc2O)cc1O` [Neohesperidin dihydrochalcone], in the series with Sprague-Dawley rats, the “(HDL-C)/(Total-C (%))” value is listed as 16%; the “neutral lipid content reduced, as compared with Control group” value stood at 9%; the “total plasma cholesterol level reduced, as compared with Control group” value stood at 15%. In addition, in the series on Sprague-Dawley rats (n=10), the HDL-C is 19 ± 3 mg/dL, the TG stood at 52 ± 8 mg/dL and the Total-C was 115 ± 10 mg/dL. For the same compound, in series [1] (rabbit main artery), the “A: Proportion(%) of fatty streak region to the total arterial area” value is 12 (±7) %. Further, in series [1] (rabbits), the “layer of macrophage-lipid complex on the arterial endothelium (Figs. 1B, 1C)” value is given as “no or very thin layers of macrophage-lipid complex”. Moreover, the “%Inhibition on ACAT activity” value in the series on ACAT worked out at 20%. Further, the “B: Proportion of abnormal fat-containing cells” value in series [2] (rabbit liver, cells around the central vein, mean of grades 1+ to 4+) was 2.7 (±0.3). For the same compound, the “microscopic features of the liver (Figs. 2B, 2C)” value in series [2] (rabbits) is given as “almost all liver cells are of a normal shape”. Also, in series [3] (setting [4]), the GOT was 53 (±23) IU/1, the GPT is 42 (±20) IU/l, the Total-C is recorded as 1293 (±89) mg/dl and the γ-GTP was 7.8 (±5) IU/l. Further, the “reducing serum GOT and GPT levels, compared with Lovastatin®” value in series [3] (rabbits, 1 % cholesterol diet, 6 weeks) is reported as “more effective”. In addition, in series [3] (setting [5]), the “serum GOT level lowered, as compared to the Control group” value is 31% and the “serum GPT level lowered, as compared to the Control group” value stood at 35%.
